Values of other authors as cited in patent US20170128514A1, “PHARMACEUTICAL COMPOSITION FOR TREATING CARDIO-CEREBROVASCULAR DISEASES AND METHOD FOR PREPARING THE SAME” (priority 2014, published 2017).

Tests used:
[1] = system: acute coronary syndrome (ACS); details: human, in vivo
[2] = system: thrombocytopenia caused by heparin

Question: With hirudin as the substance, how does the “efficacy in treating acute coronary syndrome (ACS) compared with heparin” value [1] read?
Answer: more significant than the heparin

Question: What about the “patients with blood platelets recovered and normal” value ([2]; 14.4 hrs. after the treatment) of the same substance?
Answer: 88.7%

Question: And the bleeding ([2]; in vivo)?
Answer: bleeding only occurs in a dose much larger than the required dose for anti-coagulation
